Broadly, the IC50 is the concentration at which inhibition is half-maximal.

Data set [1] concerns high fat diet-fed C57BL/6J obese and diabetic mice. The data set is described as follows: High fat diet-induced obese and diabetic mouse model. Conditions: for anti-diabetes treatment / anti-obesity treatment in a mouse model of obesity: summary statement. Type of data set: in vivo.
Data set [2] deals with murine 3T3-L1 preadipocytes. Put plainly: Lipid accumulation in differentiating adipocytes, Oil Red O staining and spectrometric quantification. The data set is classed as cell-based. Here is the method:
Avasimibe solution was prepared by dissolving in dimethyl sulfoxide (DMSO). At day 6, preadipocytes and avasimibe-treated differentiated adipocytes were subjected to Oil Red 0 staining to visualize accumulated intracellular lipids. Oil Red 0 stained lipids were then extracted for spectrometric quantification of lipids. Intracellular lipids were decreased in a dose-dependent manner by up to 60% (FIG. 3A and FIG. 3B).

The target in data set [3] is ACAT2 (Homo sapiens, UniProt O75908). The conditions noted are these: cited from earlier work.
Chain of ACAT2 (Homo sapiens, UniProt O75908) (O75908 whole entry): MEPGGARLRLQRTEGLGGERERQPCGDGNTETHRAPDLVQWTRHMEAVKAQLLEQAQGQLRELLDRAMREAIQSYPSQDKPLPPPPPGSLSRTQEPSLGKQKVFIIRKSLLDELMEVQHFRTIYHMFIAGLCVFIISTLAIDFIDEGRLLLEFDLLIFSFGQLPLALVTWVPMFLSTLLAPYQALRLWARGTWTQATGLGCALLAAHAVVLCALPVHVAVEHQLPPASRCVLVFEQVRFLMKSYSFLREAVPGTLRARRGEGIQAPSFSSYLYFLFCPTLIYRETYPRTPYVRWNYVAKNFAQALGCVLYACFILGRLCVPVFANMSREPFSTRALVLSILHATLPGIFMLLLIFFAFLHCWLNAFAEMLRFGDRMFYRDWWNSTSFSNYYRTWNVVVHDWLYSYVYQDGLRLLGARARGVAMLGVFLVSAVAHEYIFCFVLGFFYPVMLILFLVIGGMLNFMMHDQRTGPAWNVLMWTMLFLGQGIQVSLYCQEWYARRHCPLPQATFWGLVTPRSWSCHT
Another data set has as its system 3T3-L1 adipocytes. The data set is described as follows: Proteomic analysis of adipocytes by LC MS/MS. The data set is classed as cell-based, Mus musculus. The conditions noted are these: 10 μM. Here is the method: 3T3-L1 preadipocytes were induced to differentiate into mature adipocytes with the same culture condition as described elsewhere. […] Avasimibe or DMSO was replaced freshly every 48 h. Each condition was cultured in triplicate. On day 6, adipocytes were washed with 1×PBS and scraped off the culture dishes. Adipocyte cell pellets were collected after centrifugation and subsequently digested with trypsin (Sigma-Aldrich, St. Louis MO, USA) at the Ratio of 1:50 (μg/μg) Trypsin to Protein. The tryptic peptides after trypsin digestion were separated on a nano LC system (1100 Series LC, Agilent Technologies, Santa Clara, CA) as described previously (D'Aquila, et al. 2015). Briefly, peptides were concentrated with Agilent 300SB-C18 enrichment column and separated with C18 reversed phase ZORBAX 300SB-C18 column. High resolution hybrid ion trap mass spectrometer LTQ-Orbitrap LX (Thermo Fisher Scientific, Waltham MA, USA) was employed to identify the peptides in the data-dependent positive acquisition mode. These experiments were done in Bindley Bioscience Center. We used the MaxQuant computational proteomics platform version 1.5.3.17 (Cox and Mann, 2008) to analyze the results from LC MS/MS analysis. The Mus musculus (24754 entries) sequence from UNIPROT retrieved on Sep. 1, 2015 and a common contaminants database were used as our reference databases. MaxQuant was set with parameters as follows: minimum peptides length was set to seven amino acids, and “Match between runs” interval was set to one minute; The FASTA databases were randomized and 1% of protein false discovery rate was allowed; With trypsin digestion, two missed cleavages were accepted; Three modifications per peptide were allowed, including one fixed modification as “Iodoethanol” and variable modifications as “Oxidation (M)” and “Acetyl (Protein N-term)”; Initial precursor was set to 0.07 and fragment mass tolerance set to 0.02 Da; Data were analyzed with “Label-free quantification” (LFQ) checked. The MaxQuant results were used in in-house script to remove all the common contaminant proteins and to calculate the average LFQ intensity values for the biological replicates and log transform [log2(x)]. The missing values were left blank unless indicated. A two tailed student t-test was performed on the LFQ intensity.

In data set [4] the test system is adipocytes. The data set is described as follows: Cholesterol and cholesterol ester accumulation in adipocytes during adipogenesis. Type of data set: cell-based. The text has this: (§1) Previous studies reported an adipogenesis-dependent increase in cholesterol accumulation in adipocytes. Similarly, adipogenesis was associated with elevated level free cholesterol with little change in CE level.

Data set [5] concerns differentiated 3T3-L1 preadipocytes. Put plainly: Real-time PCR of lipid synthesis and cholesterol uptake genes in adipocytes. The data set is classed as cell-based, murine. The protocol: To characterize the effect of avasimibe treatment on mRNA levels of genes involved in lipid metabolism and adipocyte function, differentiated 3T3-L1 preadipocytes in the presence or absence of avasimibe (20 μM) for 6 days were subjected to real-time PCR assay for the analysis of expression of genes involved in synthesis of fatty acids and TGs such as PPARγ, sterol regulatory element binding protein 1c (SREBP1c), MGAT1, DGAT2, FAS and SCD-1.
as §1

In data set [6] the target is T1, ACAT1 (Homo sapiens, UniProt P35610).
T1 sequence (P35610 1-550): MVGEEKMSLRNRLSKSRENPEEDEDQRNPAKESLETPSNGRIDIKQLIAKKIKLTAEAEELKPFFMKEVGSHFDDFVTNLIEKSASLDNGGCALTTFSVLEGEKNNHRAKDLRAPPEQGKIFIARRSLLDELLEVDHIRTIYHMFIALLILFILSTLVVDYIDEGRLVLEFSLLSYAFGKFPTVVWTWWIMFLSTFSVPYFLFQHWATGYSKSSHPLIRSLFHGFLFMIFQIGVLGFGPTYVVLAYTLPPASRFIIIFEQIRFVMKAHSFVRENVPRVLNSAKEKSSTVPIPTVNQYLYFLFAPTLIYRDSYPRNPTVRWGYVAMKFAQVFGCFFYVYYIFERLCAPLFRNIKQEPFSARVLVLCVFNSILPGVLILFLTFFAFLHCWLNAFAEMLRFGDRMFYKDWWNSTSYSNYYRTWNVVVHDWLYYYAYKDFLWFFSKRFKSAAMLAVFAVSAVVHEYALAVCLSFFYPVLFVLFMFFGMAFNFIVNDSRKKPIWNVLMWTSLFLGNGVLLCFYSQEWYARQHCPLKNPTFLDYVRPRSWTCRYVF
The conditions noted are these: cited from earlier work.

The conditions of data set [7]: mouse, in vivo, ip, 20 mg/kg. The text has this:
Tissue- and isoform-specific regulation of ACATs has been proposed to be therapeutic strategy for cholesterol dysregulated diseases, such as atherosclerosis. However, the therapeutic role of ACATs in obesity has never been explored.

For data set [8] the following is noted: cited from earlier work.
The next data set has as its system cytochrome P450 (CYP450). Conditions: Sahi, et al. 2004; cited from earlier work.
The subject of the next data set is SREBP1. The data set is described as follows: Western blot of SREBP1 in adipocytes. Type of data set: cell-based. Here is the method: Because SREBP1 plays a key role in de novo fatty acids and TG synthesis and the data in FIG. 6 show a potential inhibitory role of avasimibe in suppression of SREBP1-downstream genes involved in fatty acid and TG synthesis, the ability of avasimibe treatment to alter SREBP1 protein expression and de novo fatty acid synthesis in adipocytes was tested.
A general note: In western blotting, separated proteins are transferred to a membrane and probed.

Data set [9] concerns high-fat diet-induced obesity mouse model. The data set is described as follows: Pair-feeding study in high-fat diet-induced obesity mouse model. The data set is classed as in vivo, mice. The text has this: To do this, mice were pair-fed with the amount of food consumed by avasimibe-administrated mice for 8 days.
The next data set concerns ACAT. Put plainly: 25-NBD cholesterol-based ACAT assay in adipocytes. The data set is classed as cell-based.
Excerpt: as §1

Data set [10] relates to adipocytes. Put plainly: De novo fatty acid synthesis, glucose-d7 with stimulated Raman scattering (SRS) microscopy. The data set is classed as cell-based. Conditions: SRS imaging. The text has this:
Using deuterium labeled glucose-d7, the effect of avasimibe on de novo fatty acid synthesis in adipocytes treated with or without avasimibe was examined. Glucose-d7 incorporated fatty acids were visualized by stimulated Raman scattering (SRS) microscopy.

For another data set, the system named is mature adipocytes. The data set is described as follows: Lipid accumulation by Coherent Anti-Stokes Raman Scattering (CARS) microscopy. The data set is classed as cell-based, murine.
The test system of data set [11] is ACAT1. The data set is described as follows: Lentivirus-mediated ACAT1 knockdown in adipocytes (Oil Red O, real-time PCR). The data set is classed as cell-based, mouse. The protocol:
The direct role of ACAT1 on synthesis of fatty acids and TGs in adipocytes by lentivirus-mediated ACAT1 knockdown using its specific shRNA was tested.
Background: Real-time PCR tracks product formation cycle by cycle.

The subject of data set [12] is ACAT2. Put plainly: ACAT2 knockdown in adipocytes (Oil Red O, real-time PCR). Type of data set: cell-based, mouse.
[13] abbreviates: daily i.p. 20 mg/kg, about 2-week.

On to `CCCCCCCCCCC(C)(C)C(=O)Nc1c(OC)cc(OC)cc1OC` [CI-976, 2,2-Dimethyl-N-(2,4,6-trimethoxyphenyl) dodecanamide], for which, in [1], the anti-diabetes treatment entry is given as “highly effective” and the “anti-obesity treatment in a mouse model of obesity” value was “highly effective”. Besides, the “lipid accumulation (Oil Red O)” value in data set [2] (0, 5, 15 and 20 μM for 6 days) was “decrease in lipid accumulation”. Further, on ACAT2 [3], the IC50 was less than 1000 nM.

`CC(C)c1cc(C(C)C)c(CC(=O)NS(=O)(=O)Oc2c(C(C)C)cccc2C(C)C)c(C(C)C)c1` [avasimibe]: in the data set on 3T3-L1 adipocytes, the “Acyl-CoA dehydrogenase protein level reduction” value is 56%, the “Acyl-CoA synthetase long-chain family member 1 protein level reduction” value came out at 86%, the FAS protein level result was “only identified in the control group” and the “acetyl-CoA acyltransferase 1 protein level reduction” value came to 61%. Further, in the data set on 3T3-L1 adipocytes, the “adiponectin protein level reduction” value came out at 84%; the “carnitine O-acetyltransferase protein level” value was “only identified in the control group”; the “cytochrome B5 Reductase 3 and superoxide dismutase 1 protein levels” value was “not altered significantly”; the “cytochrome B5 Type A protein level reduction” value was 67%. Further, in the data set with 3T3-L1 adipocytes, the “enoyl CoA hydratase short chain 1 protein level reduction” value is reported as 64%, the “fatty acid binding protein 4 protein level reduction” value was determined as 64%, the “hydroxyacyl-CoA dehydrogenase protein level reduction” value was 64% and the “hydroxysteroid (17-13) dehydrogenase 4 protein level reduction” value amounted to 38%. The “sterol carrier protein 2 downregulation” value in the data set on 3T3-L1 adipocytes is 36%. Besides, in the data set on adipocytes [4], the “CE accumulation in adipocytes” value is “complete inhibition” and the “cholesterol level in adipocytes” value was “significantly reduced level”. Also, the “mRNA levels of genes involved in lipid synthesis (PPARγ, SREBP1c, MGAT1, DGAT2, FAS, SCD-1)” value in data set [5] (20 μM for 6 days) is “marked decrease”. Further, the “mRNA levels of cholesterol uptake genes SR-BI and CD-36” value in [5] (vs control adipocytes) is listed as “marked decrease”. Further, in [1] (2-week administration), the HOMA-IR values result is “improved”, the blood glucose entry was “marked reduction”, the glucose tolerance entry is “improved glucose tolerance” and the insulin levels entry was “marked reduction”. Besides, in data set [1] (daily i.p. 20 mg/kg), the “decrease in food intake” value is “approximately 50%” and the energy expenditure entry is recorded as “reduced energy expenditure”. Besides, the “reduction or suppression in total body weight gain” value in [1] (daily i.p. 20 mg/kg body weight, about 2-week) is reported as “about 25%”. Also, in data set [1] (setting [13]), the “white adipose tissue (inguinal, epididymal, retroperitoneal) weight” value was “significant loss” and the “whole body fat mass” value is given as “significant loss”. In addition, in data set [1] (mouse, in vivo), the circulating leptin level entry is “markedly suppressed”, the “serum CE” value was “decrease”, the “serum TG” value is on record as “decrease” and the serum free cholesterol entry is listed as “decrease”. Moreover, in data set [1], the anti-diabetes treatment result is listed as “highly effective” and the “anti-obesity treatment in a mouse model of obesity” value is reported as “highly effective”. In addition, the respiratory exchange ratio entry in [1] (vs control mice) was “reduced respiratory exchange ratio”. Also, the IC50 at ACAT1 [6] was 10000 nM. For the same compound, the “decrease of intracellular lipids (Oil Red O)” value in data set [2] (avasimibe 0, 1, 5, and 20 μM for 6 days, dose-dependent) is recorded as “up to 60%”. Also, in data set [7], the “liver toxicity by alanine transaminase (ALT) assay” value was “no noticeable liver toxicity”. Moreover, on ACAT2 [3], the IC50 is 2500 nM. Also, the “safety when administered to rats, dogs, and humans” value in data set [8] (in vivo) was “generally considered safe”. Besides, the hypercholesterolemia result in data set [8] (oral) is “effectively lowered”. For the same compound, in data set [8] (orally administrated), the “effect on body weight, food intake and insulin resistance” value is reported as “no effect”. In the data set with cytochrome P450 (CYP450), the “inhibition of cytochrome P450 (CYP450)” value was “known to inhibit”. Besides, in the data set with SREBP1, the “level of 125 kDa inactive precursor form of SREBP1” value was “elevated levels”. Moreover, in data set [9] (8 days), the “blood glucose of pair-fed group relative to avasimibe-treated mice” value is “didn't reach to the level found from avasimibe-treated mice” and the fecal energy content result is given as “little change”. For the same compound, in [9] (figure legend FIG. 23C, 23D), the “fecal excretion and fecal energy excretion” value is “suppressed”. Moreover, the “ACAT activity (fluorescence-labeled CE accumulation)” value in the data set with ACAT is “inhibited the ACAT activity”. For the same compound, the “LD accumulation and glucose-d7 signal in LDs (de novo fatty acid synthesis)” value in the data set on adipocytes [10] was “reduced level”. In addition, in the data set with mature adipocytes, the “lipid accumulation by CARS microscopy” value is reported as “inhibited lipid accumulation was confirmed”.

Regarding “ACAT1 shRNA: mouse ACAT1 shRNA sequence (SEQ ID NO:5), lentivirus-mediated ACAT1 knockdown (CCGGCCAACCAGAGACUAAACAUAUCUCGAGAUAUGUUUAGUCUCUGGUUGGUUUUUUG; listed as Mus musculus)”, the “suppression of lipid accumulation vs control ShRNA adipocytes (Oil Red O)” value in the data set on ACAT1 [11] (ACAT1 knockdown) is “up to 40%”. In the data set on ACAT1 [11] (ACAT1 knockdown, real-time PCR), the “mRNA levels of genes involved in lipid synthesis” value was “marked decrease”. Also, the ACAT2 expression level entry in the data set on ACAT1 [11] (ACAT1 shRNA) is reported as “no influence”.

For “ACAT2 shRNA: mouse ACAT2 shRNA sequence (SEQ ID NO:6), ACAT2 knockdown (CCGGUGCGGUGGUUCAUGAGUAUAUCUCGAGAUAUACUCAUGAACCACCGCAUUUUUUG; listed as Mus musculus)”, in the data set with ACAT2 [12], the “mRNA levels of genes involved in TG synthesis” value was “dramatic reduction” and the “suppression of lipid accumulation vs control ShRNA adipocytes (Oil Red O)” value was “up to 55%”.

(Values after patent US12274681B2, “Compositions and methods for reducing skin fat” (Purdue Research Foundation, priority 2016, dated 2025).)
